The record followed here is patent US9346798B2, “Dihydrobenzoxazine and tetrahydroquinoxaline sodium channel inhibitors” (AMGEN INC., priority 2012, dated 2016).

Holding throughout (assay type): cell-based
Series [1] has as its target T1, Nav 1.7 (Homo sapiens (Human), UniProt Q15858). Briefly: Nav 1.7 in vitro PX assay, PatchXpress whole cell voltage clamp. The following applies: HEK 293 cells stably transfected with human Nav1.7; for IC50: partially inactivated state (20 to 50% inactivation). The method in brief:
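HEK293 cells stably expressing human Nav1.7, whole-cell voltage clamp at a holding potential giving 20–50% inactivation; currents elicited by 20 msec pulses to −10 mV at 0.1 Hz.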

Series [2] deals with Nav 1.5 (Homo sapiens (Human), UniProt Q14524). Briefly: Nav 1.5 in vitro assay, IonWorks Quattro (IWQ) population patch-clamp. The conditions noted are these: HEK 293 cells stably transfected with Nav 1.5; 26th pulse to -20 mV. In general terms: In patch-clamp work, channel activity is measured electrically.
Nav 1.5, sequence (Q14524 whole entry): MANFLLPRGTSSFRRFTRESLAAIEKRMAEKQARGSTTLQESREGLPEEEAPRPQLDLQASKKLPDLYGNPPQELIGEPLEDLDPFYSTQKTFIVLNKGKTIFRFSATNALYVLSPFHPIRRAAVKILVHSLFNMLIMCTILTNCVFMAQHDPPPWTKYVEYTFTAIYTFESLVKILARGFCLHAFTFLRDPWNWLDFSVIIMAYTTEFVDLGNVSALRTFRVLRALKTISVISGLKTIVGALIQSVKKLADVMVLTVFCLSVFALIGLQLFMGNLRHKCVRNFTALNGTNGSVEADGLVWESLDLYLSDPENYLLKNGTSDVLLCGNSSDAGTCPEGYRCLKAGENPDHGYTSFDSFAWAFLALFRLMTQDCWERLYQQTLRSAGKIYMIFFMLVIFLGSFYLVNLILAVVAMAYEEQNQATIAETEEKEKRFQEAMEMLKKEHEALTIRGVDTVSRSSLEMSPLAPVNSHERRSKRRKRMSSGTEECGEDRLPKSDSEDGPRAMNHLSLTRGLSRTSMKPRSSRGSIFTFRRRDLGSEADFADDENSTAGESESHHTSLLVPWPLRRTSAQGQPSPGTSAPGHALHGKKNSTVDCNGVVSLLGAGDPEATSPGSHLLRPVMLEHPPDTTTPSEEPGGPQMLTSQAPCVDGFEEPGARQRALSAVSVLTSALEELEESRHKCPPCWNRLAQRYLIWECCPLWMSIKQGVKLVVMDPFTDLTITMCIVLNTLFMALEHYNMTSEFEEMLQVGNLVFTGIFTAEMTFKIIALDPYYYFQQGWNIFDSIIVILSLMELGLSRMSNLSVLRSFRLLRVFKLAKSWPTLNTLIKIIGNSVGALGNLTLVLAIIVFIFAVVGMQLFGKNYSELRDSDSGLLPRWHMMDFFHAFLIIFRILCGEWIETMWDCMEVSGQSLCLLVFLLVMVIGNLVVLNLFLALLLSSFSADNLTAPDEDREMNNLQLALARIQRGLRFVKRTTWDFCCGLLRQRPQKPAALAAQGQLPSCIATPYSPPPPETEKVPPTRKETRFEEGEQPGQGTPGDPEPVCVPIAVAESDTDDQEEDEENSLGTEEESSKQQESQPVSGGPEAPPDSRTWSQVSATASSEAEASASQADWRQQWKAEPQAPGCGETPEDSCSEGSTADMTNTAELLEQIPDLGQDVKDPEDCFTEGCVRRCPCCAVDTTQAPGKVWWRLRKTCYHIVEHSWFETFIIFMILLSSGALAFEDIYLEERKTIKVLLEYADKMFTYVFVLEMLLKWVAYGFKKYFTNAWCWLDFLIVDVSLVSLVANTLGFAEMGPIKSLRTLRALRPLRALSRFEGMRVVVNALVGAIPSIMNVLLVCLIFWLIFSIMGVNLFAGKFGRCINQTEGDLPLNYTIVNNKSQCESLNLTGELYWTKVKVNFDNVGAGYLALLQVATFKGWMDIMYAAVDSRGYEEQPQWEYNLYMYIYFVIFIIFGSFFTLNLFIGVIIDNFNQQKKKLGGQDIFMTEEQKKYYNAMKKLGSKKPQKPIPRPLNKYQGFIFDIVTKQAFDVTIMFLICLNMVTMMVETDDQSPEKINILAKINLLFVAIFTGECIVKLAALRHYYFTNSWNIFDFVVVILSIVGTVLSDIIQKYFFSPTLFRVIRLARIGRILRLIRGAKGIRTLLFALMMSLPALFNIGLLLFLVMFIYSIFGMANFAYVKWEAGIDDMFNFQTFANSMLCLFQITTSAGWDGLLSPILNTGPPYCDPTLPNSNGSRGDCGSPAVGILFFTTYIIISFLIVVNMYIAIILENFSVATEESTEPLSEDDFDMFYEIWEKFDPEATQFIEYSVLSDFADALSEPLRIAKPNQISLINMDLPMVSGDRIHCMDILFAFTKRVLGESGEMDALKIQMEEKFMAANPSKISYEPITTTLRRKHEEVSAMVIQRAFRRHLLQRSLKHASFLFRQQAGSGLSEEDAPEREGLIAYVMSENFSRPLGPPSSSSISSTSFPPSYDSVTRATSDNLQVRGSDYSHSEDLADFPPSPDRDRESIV
Series [3] addresses T1, Nav 1.7. Briefly: Nav 1.7 in vitro assay, IonWorks Quattro (IWQ) population patch-clamp. The following applies: HEK 293 cells stably transfected with Nav 1.7; 26th pulse to -20 mV.

T1 sequence (Q15858 whole entry): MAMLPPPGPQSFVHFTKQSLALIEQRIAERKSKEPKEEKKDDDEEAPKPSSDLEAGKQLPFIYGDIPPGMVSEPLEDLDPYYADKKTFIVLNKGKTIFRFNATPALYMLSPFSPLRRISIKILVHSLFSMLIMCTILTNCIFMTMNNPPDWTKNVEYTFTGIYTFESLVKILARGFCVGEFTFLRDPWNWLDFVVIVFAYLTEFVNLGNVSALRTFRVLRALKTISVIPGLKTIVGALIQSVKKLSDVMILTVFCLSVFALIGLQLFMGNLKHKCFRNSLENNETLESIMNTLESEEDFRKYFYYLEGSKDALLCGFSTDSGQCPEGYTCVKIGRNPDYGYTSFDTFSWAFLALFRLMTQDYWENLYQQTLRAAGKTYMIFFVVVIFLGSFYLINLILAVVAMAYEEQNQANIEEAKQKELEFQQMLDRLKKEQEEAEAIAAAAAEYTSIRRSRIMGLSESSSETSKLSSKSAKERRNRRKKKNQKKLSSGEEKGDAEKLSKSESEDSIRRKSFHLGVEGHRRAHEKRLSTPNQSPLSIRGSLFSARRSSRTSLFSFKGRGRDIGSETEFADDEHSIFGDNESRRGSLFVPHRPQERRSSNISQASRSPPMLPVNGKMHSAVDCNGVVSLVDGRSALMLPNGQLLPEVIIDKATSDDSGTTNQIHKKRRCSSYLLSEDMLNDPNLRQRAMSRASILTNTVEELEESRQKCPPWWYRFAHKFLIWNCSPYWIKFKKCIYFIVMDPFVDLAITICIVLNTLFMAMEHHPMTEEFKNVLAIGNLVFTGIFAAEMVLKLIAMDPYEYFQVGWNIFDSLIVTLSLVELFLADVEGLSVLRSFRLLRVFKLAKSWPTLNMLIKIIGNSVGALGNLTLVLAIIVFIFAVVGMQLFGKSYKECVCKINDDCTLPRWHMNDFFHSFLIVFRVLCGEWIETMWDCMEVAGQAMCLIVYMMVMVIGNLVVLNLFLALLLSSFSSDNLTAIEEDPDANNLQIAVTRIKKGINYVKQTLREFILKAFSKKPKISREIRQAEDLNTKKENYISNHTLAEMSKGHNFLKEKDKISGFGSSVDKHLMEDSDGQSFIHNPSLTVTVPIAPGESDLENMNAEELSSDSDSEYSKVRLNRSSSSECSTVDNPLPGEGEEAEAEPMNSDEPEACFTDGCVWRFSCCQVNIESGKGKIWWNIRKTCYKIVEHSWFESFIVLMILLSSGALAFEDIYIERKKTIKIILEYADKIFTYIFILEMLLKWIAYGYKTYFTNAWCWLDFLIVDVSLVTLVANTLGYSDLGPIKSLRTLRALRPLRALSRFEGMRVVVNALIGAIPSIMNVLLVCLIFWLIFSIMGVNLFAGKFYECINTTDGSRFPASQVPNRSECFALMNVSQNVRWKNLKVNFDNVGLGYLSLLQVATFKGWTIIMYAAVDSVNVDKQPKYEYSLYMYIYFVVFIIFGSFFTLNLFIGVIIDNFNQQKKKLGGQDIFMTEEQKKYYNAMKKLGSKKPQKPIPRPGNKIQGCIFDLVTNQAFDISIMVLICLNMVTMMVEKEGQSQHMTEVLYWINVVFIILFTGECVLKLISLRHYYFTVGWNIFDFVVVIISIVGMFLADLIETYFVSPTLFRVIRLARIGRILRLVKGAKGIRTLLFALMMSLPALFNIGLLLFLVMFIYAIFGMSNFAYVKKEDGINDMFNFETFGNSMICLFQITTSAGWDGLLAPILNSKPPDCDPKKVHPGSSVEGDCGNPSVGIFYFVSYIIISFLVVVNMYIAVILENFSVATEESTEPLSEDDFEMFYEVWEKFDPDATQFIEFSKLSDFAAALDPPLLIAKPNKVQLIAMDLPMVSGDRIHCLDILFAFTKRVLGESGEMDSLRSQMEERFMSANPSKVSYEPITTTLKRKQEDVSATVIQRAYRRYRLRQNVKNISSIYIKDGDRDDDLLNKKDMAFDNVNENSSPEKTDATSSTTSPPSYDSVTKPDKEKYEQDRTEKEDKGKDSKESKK

Regarding `O=S(=O)(Nc1nccs1)c1ccc2c(c1)OCCN2c1cccc(OC(F)(F)F)c1` [Example 185, N-(Thiazol-2-Yl)-4-(3-(Trifluoromethoxy)Phenyl)-3,4-Dihydro-2H-Benzo[B][1,4]Oxazine-7-Sulfonamide], the IC50 in series [1] stood at 2620 nM; in series [2], 7620 nM; in series [3] it was 335 nM.

In the case of `COc1cc(Cl)ccc1N1CCOc2cc(S(=O)(=O)Nc3nccs3)ccc21` [Example 186, 4-(4-Chloro-2-Methoxyphenyl)-N-(Thiazol-2-Yl)-3,4-Dihydro-2H-Benzo[B][1,4]Oxazine-7-Sulfonamide], the IC50 in series [1] worked out at 67.6 nM; in series [2], 7720 nM; in series [3], 11.5 nM.

Regarding `N#Cc1c(F)cccc1N1CCOc2cc(S(=O)(=O)Nc3nccs3)ccc21` [Example 187, 4-(2-Cyano-3-Fluorophenyl)-N-(Thiazol-2-Yl)-3,4-Dihydro-2H-Benzo[B][1,4]Oxazine-7-Sulfonamide], the IC50 in series [1] was 7730 nM; in series [2], greater than 10000 nM; in series [3], 417 nM.

With `COc1ccc(C#N)c(N2CCOc3cc(S(=O)(=O)Nc4nccs4)ccc32)c1` [Example 189, 4-(2-Cyano-5-Methoxyphenyl)-N-(Thiazol-2-Yl)-3,4-Dihydro-2H-Benzo[B][1,4]Oxazine-7-Sulfonamide], the IC50 in series [1] worked out at 3100 nM; in series [2] it was 7590 nM; in series [3] it was 385 nM.

As to `COc1ccncc1N1CCOc2cc(S(=O)(=O)Nc3nccs3)ccc21` [Example 190, 4-(4-Methoxypyridin-3-Yl)-N-(Thiazol-2-Yl)-3,4-Dihydro-2H-Benzo[B][1,4]Oxazine-7-Sulfonamide], the figures for the IC50 in series [1], in series [2] and in series [3] were 5170 nM, greater than 10000 nM and 309 nM, respectively.

With `N#Cc1ccc(N2CCOc3cc(S(=O)(=O)Nc4nccs4)ccc32)c(Cl)c1` [Example 191, 4-(2-Chloro-4-Cyanophenyl)-N-(Thiazol-2-Yl)-3,4-Dihydro-2H-Benzo[B][1,4]Oxazine-7-Sulfonamide], the IC50 in series [1] was 976 nM; in series [2], greater than 10000 nM; in series [3] it was 140 nM.

Regarding `N#Cc1ccc(Cl)cc1N1CCOc2cc(S(=O)(=O)Nc3nccs3)ccc21` [Example 192, 4-(5-Chloro-2-Cyanophenyl)-N-(Thiazol-2-Yl)-3,4-Dihydro-2H-Benzo[B][1,4]Oxazine-7-Sulfonamide], the concentration for half-maximal inhibition (IC50) in series [1] turned out to be 769 nM; in series [2], 1610 nM; in series [3], 52.5 nM.

In the case of `O=S(=O)(Nc1nccs1)c1ccc2c(c1)OCCN2c1ccc(Cl)cc1OC(F)F` [Example 193, 4-(4-Chloro-2-(Difluoromethoxy)Phenyl)-N-(Thiazol-2-Yl)-3,4-Dihydro-2H-Benzo[B][1,4]Oxazine-7-Sulfonamide 2,2,2-Trifluoroacetate], the concentration for half-maximal inhibition (IC50) in series [1] came out at 684 nM; in series [2] it was 1560 nM; in series [3] it was 103 nM.

Turning to `Cc1ccc(C#N)c(N2CCOc3cc(S(=O)(=O)Nc4nccs4)ccc32)c1` [Example 194, 4-(2-Cyano-5-Methylphenyl)-N-(Thiazol-2-Yl)-3,4-Dihydro-2H-Benzo[B][1,4]Oxazine-7-Sulfonamide], the IC50 in series [1] was found to be 1370 nM; in series [2], 3590 nM; in series [3], 163 nM.

Take `Cc1cc(Cl)ccc1N1CCOc2cc(S(=O)(=O)Nc3nccs3)ccc21` [Example 195, 4-(4-Chloro-2-Methylphenyl)-N-(Thiazol-2-Yl)-3,4-Dihydro-2H-Benzo[B][1,4]Oxazine-7-Sulfonamide]: the IC50 in series [1] is 1100 nM; in series [2] it was greater than 10000 nM; in series [3], 233 nM.

Take `Cc1cc(C(F)(F)F)ccc1N1CCOc2cc(S(=O)(=O)Nc3nccs3)ccc21` [Example 196, 4-(2-Methyl-4-(Trifluoromethyl)Phenyl)-N-(Thiazol-2-Yl)-3,4-Dihydro-2H-Benzo[B][1,4]Oxazine-7-Sulfonamide]: the values for the IC50 in series [1], in series [2] and in series [3] were 898 nM, 5700 nM and 396 nM, respectively.

As to `O=C(Oc1ccc([N+](=O)[O-])cc1)N1CCOc2cc(S(=O)(=O)Nc3nccs3)ccc21` [Example 197, 4-nitrophenyl 7-(N-(thiazol-2-yl)sulfamoyl)-2H-benzo[b][1,4]oxazine-4(3 H)-carboxylate], in series [1] (HEK293, values marked *, 4.9 μM, read-out: Nav 1.7 PX percent inhibition at 4.9 μM), the inhibition at 4.9 µM was determined as 27.8%. For the same compound, the results for the IC50 in series [2] and in series [3] were greater than 10000 nM and 2530 nM, respectively.

For `N#Cc1cc(-c2ccccc2F)ccc1N1CCOc2cc(S(=O)(=O)Nc3nccs3)ccc21` [Example 198, 4-(3-cyano-2′-fluoro-[1,1′-biphenyl]-4-yl)-N-(thiazol-2-yl)-3,4-dihydro-2H-benzo[b][1,4]oxazine-7-sulfonamide], the IC50 in series [1] was determined as 339 nM; in series [2] it was 1880 nM; in series [3], 627 nM.

With `N#Cc1cc(-c2ccc(F)cc2)ccc1N1CCOc2cc(S(=O)(=O)Nc3nccs3)ccc21` [Example 199, 4-(3-Cyano-4′-Fluoro-[1,1′-Biphenyl]-4-Yl)-N-(Thiazol-2-Yl)-3,4-Dihydro-2H-Benzo[B][1,4]Oxazine-7-Sulfonamide], the IC50 was found to be 387 nM in series [1], 1220 nM in series [2] and 469 nM in series [3].

Regarding `N#Cc1cc(-c2cccc(F)c2)ccc1N1CCOc2cc(S(=O)(=O)Nc3nccs3)ccc21` [Example 200, 4-(3-Cyano-3′-Fluoro-[1,1′-Biphenyl]-4-Yl)-N-(Thiazol-2-Yl)-3,4-Dihydro-2H-Benzo[B][1,4]Oxazine-7-Sulfonamide], the IC50 turned out to be 150 nM in series [1], 854 nM in series [2] and 144 nM in series [3].

Consider `COc1cc(-c2cccc(F)c2)ccc1N1CCOc2cc(S(=O)(=O)Nc3nccs3)ccc21` [Example 201, 4-(3′-Fluoro-3-Methoxy-[1,1′-Biphenyl]-4-Yl)-N-(Thiazol-2-Yl)-3,4-Dihydro-2H-Benzo[B][1,4]Oxazine-7-Sulfonamide], for which the IC50 in series [1] came to 773 nM; in series [2], 4830 nM; in series [3] it was 143 nM.

`CC(C)c1ccc(N2CCOc3cc(S(=O)(=O)Nc4nccs4)ccc32)c(C#N)c1` [Example 202, 4-(2-cyano-4-isopropylphenyl)-N-(thiazol-2-yl)-3,4-dihydro-2H-benzo[b][1,4]oxazine-7-sulfonamide]: the IC50 came to 428 nM in series [1], 686 nM in series [2] and 93.5 nM in series [3].

With `CCc1ccc(N2CCOc3cc(S(=O)(=O)Nc4nccs4)ccc32)c(C#N)c1` [Example 203, 4-(2-Cyano-4-Ethylphenyl)-N-(Thiazol-2-Yl)-3,4-Dihydro-2H-Benzo[B][1,4]Oxazine-7-Sulfonamide], the results for the half-inhibitory concentration (IC50) in series [1], in series [2] and in series [3] were 469 nM, 1090 nM and 87.5 nM, respectively.

With `O=S(=O)(Nc1nccs1)c1ccc2c(c1)OCCN2c1ccc(C(F)(F)F)cc1C(O)CO` (stereo not drawn) [Example 204, 4-(2-(1,2-dihydroxyethyl)-4-(trifluoromethyl)phenyl)-N-(thiazol-2-yl)-3,4-dihydro-2H-benzo[b][1,4]oxazine-7-sulfonamide], the IC50 in series [1] came to 343 nM; in series [2], 637 nM; in series [3] it was 47.5 nM.

`COc1ccccc1N1CCOc2cc(S(=O)(=O)Nc3nccs3)ccc21` [Example 205, 4-(2-methoxyphenyl)-N-(thiazol-2-yl)-3,4-dihydro-2H-benzo[b][1,4]oxazine-7-sulfonamide]: the IC50 in series [1] was 382 nM; in series [2] it was greater than 10000 nM; in series [3] it was 38 nM.

Regarding `O=S(=O)(Nc1nccs1)c1ccc2c(c1)OCCN2c1ccc(C(F)(F)F)cc1CO` [Example 206, 4-(2-(hydroxymethyl)-4-(trifluoromethyl)phenyl)-N-(thiazol-2-yl)-3,4-dihydro-2H-benzo[b][1,4]oxazine-7-sulfonamide], the half-inhibitory concentration (IC50) in series [1] was determined as 174 nM; in series [2] it was 1140 nM; in series [3], 31.5 nM.

`O=S(=O)(Nc1nccs1)c1ccc2c(c1)OCCN2c1ccc(Cl)cc1CC(O)CO` (stereo not drawn) [Example 210, 4-(4-Chloro-2-(2,3-Dihydroxypropyl)Phenyl)-N-(Thiazol-2-Yl)-3,4-Dihydro-2H-Benzo[B][1,4]Oxazine-7-Sulfonamide]: the figures for the IC50 in series [1], in series [2] and in series [3] were 226 nM, 6110 nM and 12.5 nM, respectively.

As for `O=S(=O)(Nc1nccs1)c1ccc2c(c1)OCCN2c1ccc(C(F)(F)F)cc1CCO` [Example 211, 4-(2-(2-Hydroxyethyl)-4-(Trifluoromethyl)Phenyl)-N-(Thiazol-2-Yl)-3,4-Dihydro-2H-Benzo[B][1,4]Oxazine-7-Sulfonamide], the IC50 in series [1] was found to be 229 nM; in series [2] it was 471 nM; in series [3] it was 5.5 nM.

In the case of `N#Cc1cc(C(F)(F)F)ccc1N1CCOc2cc(S(=O)(=O)Nc3nccs3)c(Cl)cc21` [Example 212, 6-Chloro-4-(2-Cyano-4-(Trifluoromethyl)Phenyl)-N-(Thiazol-2-Yl)-3,4-Dihydro-2H-Benzo[B][1,4]Oxazine-7-Sulfonamide], the IC50 in series [1] stood at 373 nM; in series [2] it was 736 nM; in series [3], 21.3 nM.

Consider `COc1nc(C(F)(F)F)ccc1N1CCOc2cc(S(=O)(=O)Nc3nccs3)ccc21` [Example 214, 4-(2-Methoxy-6-(Trifluoromethyl)Pyridin-3-Yl)-N-(Thiazol-2-Yl)-3,4-Dihydro-2H-Benzo[B][1,4]Oxazine-7-Sulfonamide], for which the IC50 in series [1] is 800 nM; in series [2] it was greater than 10000 nM; in series [3] it was 68.5 nM.

For `N#Cc1cc(C(F)(F)F)ccc1N1CCOc2cc(S(=O)(=O)Nc3nccs3)c(F)cc21` [Example 215, 4-(2-Cyano-4-(Trifluoromethyl)Phenyl)-6-Fluoro-N-(Thiazol-2-Yl)-3,4-Dihydro-2H-Benzo[B][1,4]Oxazine-7-Sulfonamide], the half-maximal inhibitory concentration (IC50) was 183 nM in series [1], 203 nM in series [2] and 9.86 nM in series [3].

In general, IC50 refers to the concentration at which inhibition is half-maximal. Read a low IC50 as higher potency. A word on the inhibition: it is the relative decrease from the control value, in per cent.
